These results are taken from paper PMC10146604, “The Balance between Hydrophobicity/Aromaticity and Positively Charged Residues May Influence the Cell Penetration Ability” (Pharmaceutics, 2023).

Peptide text beside a SMILES is read from it. * marks the point of attachment. 5FAM = O=C1OC2(c3ccc(O)cc3Oc3cc(O)ccc32)c2ccc(C(=O)*)cc21; Dabcyl = CN(C)c1ccc(N=Nc2ccc(C(=O)*)cc2)cc1

This data set relates to EBC-1 human lung squamous carcinoma cells. The experiment in a line: Cellular uptake by flow cytometry. The note with it: 90 min, 37 °C, trypsinization; for cellular uptake (in words) / cellular uptake relative to the control octaarginine (Cf-Arg8): 5 µM peptide, serum-free medium; for cellular uptake (in words): compared with Cf-Arg8; for cellular uptake relative to the control octaarginine (Cf-Arg8): flow cytometry fluorescence intensity normalized to Cf-Arg8. It counts as cell-based. The protocol: For the examination of the internalization of the peptides, 10^5 cultured EBC-1 cells per well were plated on 24-well plates. The cells were incubated for 24 h at 37 °C then they were treated with peptides at different concentrations for 90 min in a serum-free medium. In the negative control the cells were treated with a serum-free medium. After the incubation, the peptide solutions were removed and 100 µL trypsin (0.25%) was added for 5–10 min to remove membrane bound peptides and detach the adherent cells from the plates. The activity of trypsin was terminated by the addition of 900 µL HPMI buffer (glucose, NaHCO3, NaCl, HEPES, KCl, MgCl2, CaCl2, Na2HPO4∙2H2O) containing 10% fetal bovine serum, and the cells were transferred from the plates to FACS-tubes for measurement. The cells were centrifuged at 216× g at 4 °C for 5 min and the supernatant was removed. The cells were resuspended in 250 µL HPMI, and the fluorescence intensity of the cells was quantified using flow cytometry (BD LSR II, BD Bioscience, San Jose, CA, USA). The data were analyzed with FACSDiva 5.0 software (BD Bioscience, San Jose, CA, USA).
The cellular uptake of the peptides was determined using flow cytometry on EBC-1 human lung squamous carcinoma cells. The peptides were added to the cells at a concentration of 5 µM for 90 min at 37 °C. Selected constructs were used to study the concentration dependence at 0.125, 1.25 and 2.5 µM with 90 min treatment times. When evaluating the measurements data, the fluorescence of cells treated with peptides was corrected with the autofluorescence of cells without peptide treatment. The toxicity of the peptide conjugates was determined by comparing the live and dead cells ratio during the flow cytometry analysis.
For orientation: In flow cytometry, cells or beads pass a laser one at a time.

Consider `CN(C)c1ccc(N=Nc2ccc(C(=O)NCCCC[C@H](NC(=O)[C@H](CCCNC(=N)N)NC(=O)[C@H](CCCNC(=N)N)NC(=O)[C@H](CCCNC(=N)N)NC(=O)[C@H](CCCNC(=N)N)NC(=O)[C@H](CCCNC(=N)N)NC(=O)[C@H](CCCNC(=N)N)NC(=O)c3ccc4c(c3)C(=O)OC43c4ccc(O)cc4Oc4cc(O)ccc43)C(N)=O)cc2)cc1` [Cf-(Arg)6-Lys(Dabcyl)], for which the “cellular uptake (in words)” value (EBC-1 cells, flow cytometry) is “surprisingly poor cellular uptake”. Besides, the “cellular uptake compared with octaarginine at low concentrations (in words)” value (EBC-1 cells, 0.125, 1.25 and 2.5 µM peptide, flow cytometry) is recorded as “significantly decreased uptake”.
Take `CN(C)c1ccc(N=Nc2ccc(C(=O)N[C@@H](CCCNC(=N)N)C(=O)N[C@@H](CCCNC(=N)N)C(=O)N[C@@H](CCCNC(=N)N)C(=O)N[C@@H](CCCNC(=N)N)C(=O)N[C@@H](CCCCNC(=O)c3ccc4c(c3)C(=O)OC43c4ccc(O)cc4Oc4cc(O)ccc43)C(N)=O)cc2)cc1` [Dabcyl-(Arg)4-Lys(Cf)] (Dabcyl-RRRRK(5FAM)-NH2): the “cellular uptake (in words)” value (EBC-1 cells, flow cytometry) is given as “lower cellular uptake than octaarginine”.
In the case of `CN(C)c1ccc(N=Nc2ccc(C(=O)N[C@@H](CCCNC(=N)N)C(=O)N[C@@H](CCCNC(=N)N)C(=O)N[C@@H](CCCNC(=N)N)C(=O)N[C@@H](CCCNC(=N)N)C(=O)N[C@@H](CCCNC(=N)N)C(=O)N[C@@H](CCCNC(=N)N)C(=O)N[C@@H](CCCCNC(=O)c3ccc4c(c3)C(=O)OC43c4ccc(O)cc4Oc4cc(O)ccc43)C(N)=O)cc2)cc1` [Dabcyl-(Arg)6-Lys(Cf)], the “cellular uptake relative to the control octaarginine (Cf-Arg8)” value (EBC-1 cells) worked out at 6.5 times.
The same measure, in the same setting: to `CN(C)c1ccc(N=Nc2ccc(C(=O)N[C@@H](CCCNC(=N)N)C(=O)N[C@@H](CCCNC(=N)N)C(=O)N[C@@H](CCCNC(=N)N)C(=O)N[C@@H](CCCNC(=N)N)C(=O)N[C@@H](CCCNC(=N)N)C(=O)N[C@@H](CCCNC(=N)N)C(=O)N[C@@H](CCCNC(=N)N)C(=O)N[C@@H](CCCCNC(=O)c3ccc4c(c3)C(=O)OC43c4ccc(O)cc4Oc4cc(O)ccc43)C(N)=O)cc2)cc1` [Dabcyl-(Arg)7-Lys(Cf)] belongs 6 times.
With `CN(C)c1ccc(N=Nc2ccc(C(=O)NCc3ccc(C(=O)N[C@@H](CCCNC(=N)N)C(=O)N[C@@H](CCCNC(=N)N)C(=O)N[C@@H](CCCNC(=N)N)C(=O)N[C@@H](CCCNC(=N)N)C(=O)N[C@@H](CCCNC(=N)N)C(=O)N[C@@H](CCCNC(=N)N)C(=O)N[C@@H](CCCNC(=N)N)C(=O)N[C@@H](CCCNC(=N)N)C(=O)N[C@@H](CCCCNC(=O)c4ccc5c(c4)C(=O)OC54c5ccc(O)cc5Oc5cc(O)ccc54)C(N)=O)cc3)cc2)cc1` [Dabcyl-AMBA-(Arg)8-Lys(Cf)], the “cellular uptake relative to Cf-Arg8” value (EBC-1 cells, 1.25 µM peptide, flow cytometry) is recorded as ~ 6 times. Besides, the “cellular uptake relative to octaarginine” value (EBC-1 cells, 2.5 µM peptide, flow cytometry) is 30 times. Besides, for the setting “EBC-1 cells”, the “cellular uptake relative to the control octaarginine (Cf-Arg8)” value was ~ 8 times.
